Molecules are shown by their SMILES.

In the first assay the target is GST tagged truncated human mutant G2019S LRRK2 (Homo sapiens (Human), UniProt Q5S007, G2019S). The assay is described as follows: LRRK2 Km ATP LanthaScreen Assay. Format: biochemical. The following applies: G2019S LRRK2, 134 μM ATP (Km ATP), mean values. In short, it runs like this: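 Enzyme (GST-tagged, truncated) was preincubated with compound for 15 min at RT in 50 mM Tris pH 8.5, 10 mM MgCl2, 0.01% Brij-35, 1 mM EGTA, 2 mM DTT and 0.05 mM orthovanadate. Fluorescein-LRRKtide and 134 μM ATP (Km) were then added for 90 min. EDTA and Tb-anti-pERM antibody stopped the reaction; the TR-FRET 520/495 ratio gave 4-parameter IC50s, reported as mean pIC50.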
GST tagged truncated human mutant G2019S LRRK2, sequence (Q5S007 970-2527 G2019S): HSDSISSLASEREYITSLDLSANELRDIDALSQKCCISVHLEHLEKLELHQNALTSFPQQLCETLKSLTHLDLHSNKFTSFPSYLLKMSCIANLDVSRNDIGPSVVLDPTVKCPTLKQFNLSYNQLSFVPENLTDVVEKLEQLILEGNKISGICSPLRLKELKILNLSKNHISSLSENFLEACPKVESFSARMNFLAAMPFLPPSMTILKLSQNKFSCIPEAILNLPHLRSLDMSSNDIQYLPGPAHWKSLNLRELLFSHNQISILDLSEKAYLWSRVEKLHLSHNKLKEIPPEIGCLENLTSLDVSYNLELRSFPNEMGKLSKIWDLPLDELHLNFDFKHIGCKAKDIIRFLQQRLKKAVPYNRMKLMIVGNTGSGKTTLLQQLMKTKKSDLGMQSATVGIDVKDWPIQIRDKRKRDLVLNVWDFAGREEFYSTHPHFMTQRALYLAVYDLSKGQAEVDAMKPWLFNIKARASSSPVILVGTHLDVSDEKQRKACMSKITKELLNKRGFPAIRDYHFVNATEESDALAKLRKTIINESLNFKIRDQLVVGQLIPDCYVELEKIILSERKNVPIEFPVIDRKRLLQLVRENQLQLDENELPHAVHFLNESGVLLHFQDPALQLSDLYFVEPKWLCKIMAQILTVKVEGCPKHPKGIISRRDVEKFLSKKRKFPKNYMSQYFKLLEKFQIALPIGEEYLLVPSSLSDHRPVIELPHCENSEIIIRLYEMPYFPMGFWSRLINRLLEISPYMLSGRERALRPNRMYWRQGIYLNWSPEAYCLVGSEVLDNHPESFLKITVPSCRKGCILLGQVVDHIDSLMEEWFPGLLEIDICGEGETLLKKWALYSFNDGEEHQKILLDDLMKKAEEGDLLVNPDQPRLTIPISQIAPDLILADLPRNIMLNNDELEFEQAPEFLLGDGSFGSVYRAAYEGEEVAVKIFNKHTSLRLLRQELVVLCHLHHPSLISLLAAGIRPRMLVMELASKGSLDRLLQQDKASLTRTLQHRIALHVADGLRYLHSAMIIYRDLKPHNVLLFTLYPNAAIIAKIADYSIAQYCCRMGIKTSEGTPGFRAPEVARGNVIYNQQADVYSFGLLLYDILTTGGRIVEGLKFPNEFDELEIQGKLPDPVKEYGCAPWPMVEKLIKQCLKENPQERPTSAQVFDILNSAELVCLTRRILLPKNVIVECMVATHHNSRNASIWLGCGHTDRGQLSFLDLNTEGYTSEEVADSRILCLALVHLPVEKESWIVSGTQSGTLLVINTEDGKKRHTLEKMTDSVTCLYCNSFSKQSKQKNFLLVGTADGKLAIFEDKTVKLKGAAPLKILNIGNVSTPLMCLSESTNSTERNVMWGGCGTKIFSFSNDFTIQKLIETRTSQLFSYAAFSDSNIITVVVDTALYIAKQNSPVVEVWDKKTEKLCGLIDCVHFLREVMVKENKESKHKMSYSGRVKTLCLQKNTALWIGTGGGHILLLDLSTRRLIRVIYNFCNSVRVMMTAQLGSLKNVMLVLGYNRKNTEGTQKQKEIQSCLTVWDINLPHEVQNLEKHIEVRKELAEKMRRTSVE
A general note: In TR-FRET formats the signal depends on donor and acceptor labels being close together.
On to `Cc1cc2cnc(Nc3cnn(C45CC(C4)C5)c3Cl)nc2cc1[C@@H]1CCN([C@H]2COC[C@H]2O)C[C@H]1F` (single isomer, unassigned) [Ex-8.34, (3S,4S)(3S,4S) or (3S,4S)(3R,4R) or (3R,4R)(3S,4S) or (3R,4R)(3R,4R) 4-[4-(2-{[1-(bicyclo[1.1.1]pentan-1-yl)-5-chloro-1H-pyrazol-4-yl]amino}-6-methylquinazolin-7-yl)-3-fluoropiperidin-1-yl]oxolan-3-ol], for which the “LRRK2 pIC50” value is given as over 9.20. Regarding `Cc1cc2cnc(Nc3cnn(C45CC(C4)C5)c3Cl)nc2cc1[C@H]1CCN([C@@H]2COC[C@@H]2O)C[C@@H]1F` (single isomer, unassigned) [Ex-8.35, (3S,4S)(3S,4S) or (3S,4S)(3R,4R) or (3R,4R)(3S,4S) or (3R,4R)(3R,4R) 4-[4-(2-{[1-(bicyclo[1.1.1]pentan-1-yl)-5-chloro-1H-pyrazol-4-yl]amino}-6-methylquinazolin-7-yl)-3-fluoropiperidin-1-yl]oxolan-3-ol], the “LRRK2 pIC50” value amounted to 8.68. As to `Cc1cc2cnc(Nc3cnn(C45CC(C4)C5)c3Cl)nc2cc1[C@H]1CCN([C@H]2COC[C@H]2O)C[C@@H]1F` (single isomer, unassigned) [Ex-8.36, (3S,4S)(3S,4S) or (3S,4S)(3R,4R) or (3R,4R)(3S,4S) or (3R,4R)(3R,4R) 4-[4-(2-{[1-(bicyclo[1.1.1]pentan-1-yl)-5-chloro-1H-pyrazol-4-yl]amino}-6-methylquinazolin-7-yl)-3-fluoropiperidin-1-yl]oxolan-3-ol], the “LRRK2 pIC50” value is 8.38.

On to `O[C@H]1COC[C@H]1N1CC[C@H](c2cc3nc(Nc4cnn(C56CC(C5)C6)c4Cl)ncc3cc2Cl)[C@@H](F)C1` (single isomer, unassigned) [Ex-8.37, (3S,4S)(3S,4S) or (3S,4S)(3R,4R) or (3R,4R)(3S,4S) or (3R,4R)(3R,4R) 4-[4-(2-{[1-(bicyclo[1.1.1]pentan-1-yl)-5-chloro-1H-pyrazol-4-yl]amino}-6-chloroquinazolin-7-yl)-3-fluoropiperidin-1-yl]oxolan-3-ol], for which the “LRRK2 pIC50” value was over 9.20. On the same count and under the same terms, as for `Cc1c(Nc2ncc3cc(C(F)(F)F)c(C4CCN([C@@]5(C)COC[C@H]5O)CC4)cc3n2)cnn1C1CC1` (single isomer, unassigned) [Ex-9.1, (3S,4S) or (3R,4R) 4-(4-(2-((1-cyclopropyl-5-methyl-1H-pyrazol-4-yl)amino)-6-(trifluoromethyl)quinazolin-7-yl)piperidin-1-yl)-4-methyltetrahydrofuran-3-ol], the figure is 9.19; as for `Cc1cc(Nc2ncc3cc(Cl)c(C4CCN(C)CC4F)cc3n2)sn1` (stereo in doubt) [Ex-4.52, (3S,4R) or (3R,4R) 6-chloro-7-(3-fluoro-1-methylpiperidin-4-yl)-N-(3-methyl-1,2-thiazol-5-yl)quinazolin-2-amine], 9.06; as for `CC1(O)CCC(c2cc3nc(Nc4cnn(C5CC5)c4Cl)ncc3cc2Cl)CC1` (stereo not drawn) [Ex-1.17, cis-or trans-4-(6-chloro-2-((5-chloro-1-cyclopropyl-1H-pyrazol-4-yl)amino)quinazolin-7-yl)-1-methylcyclohexan-1-ol], 8.58.

Still in this assay, the particulars now being: G2019S LRRK2, 134 μM ATP (Km ATP), mean values; read-out: LRRK2 pIC50 (converted).
For the molecule `Cn1nc(Cl)cc1Nc1ncc2cc(Cl)c(C3CCN([C@@]4(C)COC[C@H]4O)CC3)cc2n1` (single isomer, unassigned) [Ex-10.1, (3S,4S) or (3R,4R) 4-(4-(6-chloro-2-((3-chloro-1-methyl-1H-pyrazol-5-yl)amino)quinazolin-7-yl)piperidin-1-yl)-4-methyltetrahydrofuran-3-ol], the IC50 was 0.776 nM. For `Cc1cc2cnc(Nc3cnn(C4CC4(F)F)c3Cl)nc2cc1C1CCN([C@@H]2COC[C@@H]2O)CC1` (stereo in doubt) [Ex-2.34, 4-[4-(2-{[5-chloro-1-(2,2-difluorocyclopropyl)-1H-pyrazol-4-yl]amino}-6-methylquinazolin-7-yl)piperidin-1-yl]oxolan-3-ol], the IC50 is under 0.631 nM.

Values taken from patent publication US12540131B2 (Merck Sharp & Dohme LLC, priority 2019, dated 2026).
